From patent publication US10533015B1, “Opioid receptor antagonist prodrugs” (Nirsum Laboratories, Inc., priority 2019, dated 2020)
Like-named read-outs stand apart in the source and are kept apart here.

Experiments:
[1] = Plasma stability assay, rat plasma; assay type: in vitro ADME; conditions: 10 μM, 37° C.
In short: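 Rat, dog, cynomolgus monkey and human plasma incubated in duplicate; rat sampled at 0, 15, 120, 480 and 1440 min. Dog, monkey and human used 2 μM compound (final), 1% solvent, 37° C., sampled at 0, 10, 30, 60 and 120 min. HPLC-MS gave % parent remaining.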

[2] = Plasma stability assay, dog plasma; assay type: in vitro ADME; conditions: 2 μM, 37° C.
Experimental: (§1) Plasma stability determination of the test compounds in rat, dog, cynomolgus monkey and human plasma is performed using HPLC-MS. For rat, incubations are carried out in 96-well polypropylene plates in 5 aliquots of 70 μL each (one for each time point). […] Five time points are analyzed (0, 15, 120, 480 and 1440 min). […] All incubations are performed in duplicates. The samples are analyzed by HPLC-MS. The percentage of parent compound remaining after incubation in plasma is determined.

[3] = Plasma stability assay, monkey plasma; assay type: in vitro ADME, cynomolgus monkey; conditions: 2 μM, 37° C.
Experimental: as §1

[4] = Plasma stability assay, human plasma; assay type: in vitro ADME; conditions: 2 μM, 37° C.
Experimental: as §1

[5] = Liver S9 fraction stability, dog; assay type: in vitro ADME; conditions: dog liver S9, 1.0 mg/ml S9 protein, 2 μM, 37° C.
Experimental: (§2) Liver S9 fraction stability determination of the test compounds in dog, cynomolgus monkey and human is performed using HPLC-MS. Test compound (2 μM, 0.1% DMSO, 1% Methanol final concentration) was assessed for stability in a 50 μl phosphate buffer containing 1.0 mg/ml S9 protein from each of the three species and 5 mM D-saccharic acid-1, 4-lactone. Samples were incubated at 37° C. for 60 minutes and the % compound remaining was assessed.

[6] = Liver S9 fraction stability, monkey; assay type: in vitro ADME, cynomolgus monkey; conditions: monkey liver S9, 1.0 mg/ml S9 protein, 2 μM, 37° C.
Experimental: as §2

[7] = Liver S9 fraction stability, human; assay type: in vitro ADME; conditions: human liver S9, 1.0 mg/ml S9 protein, 2 μM, 37° C.
Experimental: as §2

DOR = target: T1, DOR (Homo sapiens, UniProt P41143); assay: Opioid receptor binding assay, DOR ([3H]-DADLE); conditions: MaxDose 10000 nM
T1 construct: expressed in transfected cells
Experimental: Receptor binding assays were performed to assess the ability of compounds to inhibit binding to radiolabeled ligand.
The stable cell lines were established and prepared cell membrane obtained using these cell lines.
3) Assay Procedure 1) Transfer 1 μl of specified concentration compound to assay plate according to the plate map for nonspecific binding. Transfer 1 μl of DMSO to assay plate according to plate map for total binding. 2) Follow the plate map. Dispense 99 μl of membrane stocks into the plate. 3) Add 100 μl of radio ligand. 4) Seal the plates. Incubate at RT for 1 hour. 5) Soak the Unifilter-96 GF/C filter plates with 50 μl of 0.3% PEI per well for at least 0.5 hour at room temperature. 6) When binding assays are completed, filter the reaction mixture through GF/C plates using Perkin Elmer Filtermate Harvester, and then wash each plate for 4 times with cold wash buffer. 7) Dry the filter plates for 1 hour at 50 degrees. 8) After drying, seal the bottom of the filter plate wells using Perkin Elmer Unifilter-96 backing seal tape. Add 50 μl of Perkin Elmer Microscint 20 cocktail. Seal top of filter plates with Perkin Elmer TopSeal-A sealing film. 9) Count ^3H trapped on filter using Perkin Elmer MicroBeta2 Reader second day. 10) Analyze the data with GraphPad Prism 5. Calculate the “Inhibition [% Control]” using the equation: % Inh=(1-Background subtracted Assay value/Background subtracted HC value)*100. Results

[8] = heating temp. 40 °C, obs. temp. 40 °C
[9] = heating temp. 60 °C, obs. temp. 25 °C

T1 sequence (P41143 whole entry): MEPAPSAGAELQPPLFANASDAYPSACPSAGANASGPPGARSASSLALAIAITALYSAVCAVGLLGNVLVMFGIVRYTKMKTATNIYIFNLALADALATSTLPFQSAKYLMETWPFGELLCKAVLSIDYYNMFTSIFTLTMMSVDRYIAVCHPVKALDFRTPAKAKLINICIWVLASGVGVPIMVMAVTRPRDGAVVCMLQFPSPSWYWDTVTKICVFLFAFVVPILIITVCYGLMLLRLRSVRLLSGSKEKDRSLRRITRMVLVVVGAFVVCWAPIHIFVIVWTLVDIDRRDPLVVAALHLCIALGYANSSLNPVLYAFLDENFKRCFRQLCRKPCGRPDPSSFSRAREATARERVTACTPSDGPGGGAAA

| SMILES | % remaining at time point ([1]; 0 min) [%] | % remaining at time point ([1]; 15 min) [%] | % remaining at time point ([1]; 120 min) [%] | % remaining at time point ([1]; 480 min) [%] | % remaining at time point ([1]; 1440 min) [%] | % remaining at time point ([2]; 0 min) [%] | % remaining at time point ([2]; 15 min (head)) [%] | % remaining at time point ([2]; 120 min (head)) [%] | % remaining at time point ([2]; 480 min (head)) [%] | % remaining at time point ([2]; 1440 min (head)) [%] | % remaining at time point ([3]; 0 min) [%] | % remaining at time point ([3]; 15 min (head)) [%] | % remaining at time point ([3]; 120 min (head)) [%] | % remaining at time point ([3]; 480 min (head)) [%] | % remaining at time point ([3]; 1440 min (head)) [%] | % remaining at time point ([4]; 0 min) [%] | % remaining at time point ([4]; 15 min (head)) [%] | % remaining at time point ([4]; 120 min (head)) [%] | Approximate Solubility (mg/mL) in Excipient: Cottonseed oil [9] [mg/mL] | Approximate Solubility (mg/mL) in Excipient: Sesame oil [9] [mg/mL] | further results |
| --- | --- | --- | --- | --- | --- | --- | --- | --- | --- | --- | --- | --- | --- | --- | --- | --- | --- | --- | --- | --- | --- |
| CCCCCCCCCCCC(=O)OCN1C(=O)CCc2ccc(OCCCCN3CCN(c4cccc(Cl)c4Cl)CC3)cc21 [Aripiprazole Lauroxil, reference compound] | 100 | 84 | 85.5 | 76.4 | 46 | 100 | 103 | 81.3 | 78.6 | 74.3 | 100 | 95.2 | 94.5 | 75.5 | 83.2 | 100 | 99.7 | 80 |  |  | % remaining at time point ([4]; 480 min (head)): 73.2%; % remaining at time point ([4]; 1440 min (head)): 75.5%; % remaining at 60 minutes [5]: 66.1%; % remaining at 60 minutes [6]: 56.6%; % remaining at 60 minutes [7]: 47.8% |
| C=C1CC[C@@]2(O)C3Cc4ccc(OC(=O)CCCCCCC/C=C/CCCCCCCC)c5c4[C@@]2(CCN3CC2CC2)[C@H]1O5 [Compound 15, (4aS,7aS,12bS)-3-(cyclopropylmethyl)-4a-hydroxy-7-methylene-2,3,4,4a,5,6,7,7a-octahydro-1H-4,12-methanobenzofuro[3,2-e]isoquinolin-9-yl (E)-octadec-9-enoate] | 100 | 72 | 69.3 | 52 | 35 | 100 | 82.5 | 80.6 | 90.1 | 86.1 | 100 | 74.5 | 72.7 | 80.6 | 76.5 | 100 | 83.3 | 82.5 | >402.6 | >396.5 | % remaining at time point ([4]; 480 min (head)): 107.1%; % remaining at time point ([4]; 1440 min (head)): 109.0%; % remaining at 60 minutes [5]: 80.9%; % remaining at 60 minutes [6]: 76.7%; % remaining at 60 minutes [7]: 59.8%; Approximate Solubility (mg/mL) in Excipient: Cottonseed oil [8]: <51 mg/mL; Approximate Solubility (mg/mL) in Excipient: Cottonseed oil (heating temp. 60 °C, obs. temp. 40 °C): >401 mg/mL; Approximate Solubility (mg/mL) in Excipient: Ethanol (Ethanol, heating temp. 40 °C, obs. temp. 40 °C): <20 mg/mL; Approximate Solubility (mg/mL) in Excipient: Sesame oil [8]: <52 mg/mL; Equilibrium solubility (mg/mL) Water [8]: <0.0002 mg/mL |
| C=C1CC[C@@]2(O)C3Cc4ccc(OCOC(=O)OCCCCCCCCCCCC)c5c4[C@@]2(CCN3CC2CC2)[C@H]1O5 [Compound 24, (((4aS,7aS,12bS)-3-(cyclopropylmethyl)-4a-hydroxy-7-methylene-2,3,4,4a,5,6,7,7a-octahydro-1H-4,12-methanobenzofuro[3,2-e]isoquinolin-9-yl)oxy)methyl dodecyl carbonate] | 100 | 32 | 11.8 | 8.2 | 3 | 100 | 94.7 | 104.5 | 115.7 | 116.2 | 100 | 90.7 | 93.5 | 96.2 | 97.8 | 100 | 94 | 102.3 | >403 | 338 to 368 | % remaining at time point ([4]; 480 min (head)): 105.3%; % remaining at time point ([4]; 1440 min (head)): 112.5%; % remaining at 60 minutes [5]: 3.6%; % remaining at 60 minutes [6]: 3%; % remaining at 60 minutes [7]: 3.5%; Equilibrium solubility (mg/mL) Water [8]: <0.001 mg/mL |
| C=C1CC[C@@]2(O)C3Cc4ccc(OC(=O)OCCCCCCCCCCCCCCC)c5c4[C@@]2(CCN3CC2CC2)[C@H]1O5 [Compound 32, (4aS,7aS,12bS)-3-(cyclopropylmethyl)-4a-hydroxy-7-methylene-2,3,4,4a,5,6,7,7a-octahydro-1H-4,12-methanobenzofuro[3,2-e]isoquinolin-9-yl pentadecyl carbonate] |  |  |  |  |  |  |  |  |  |  |  |  |  |  |  |  |  |  | >395.8 | >410 | % Inh@MaxDose (DOR): 43.2% |
| C=C1CC[C@@]2(O)C3Cc4ccc(OCOC(=O)CCCCCCCCCCCCC)c5c4[C@@]2(CCN3CC2CC2)[C@H]1O5 [Compound 45, (((4aS,7aS,12bS)-3-(cyclopropylmethyl)-4a-hydroxy-7-methylene-2,3,4,4a,5,6,7,7a-octahydro-1H-4,12-methanobenzofuro[3,2-e]isoquinolin-9-yl)oxy)methyl tetradecanoate] |  |  |  |  |  |  |  |  |  |  |  |  |  |  |  |  |  |  | >402 | 267 to 288 | % Inh@MaxDose (DOR): 73.8%; Equilibrium solubility (mg/mL) Water [8]: <0.001 mg/mL |
